Experimental data reported in US9328374B2, “Selective culture medium and method for detecting carbapenem-resistant bacteria in a test sample” (Institut National de la Sante et de la Recherche Medicale …, priority 2011, dated 2016).
Read-outs that look alike come from different tables or passages of the source.

Assays:
Assay in all cases: MIC of imipenem, ertapenem and meropenem
E. cloacae = type: cell-based, Enterobacter cloacae; details: Enterobacter cloacae, read-out: MIC
C. koseri = type: cell-based
P. mirabilis = type: cell-based
C. freundii = type: cell-based, Citrobacter freundii
S. typhimurium = type: cell-based

Measured: MIC

C[C@@H](O)[C@H]1C(=O)N2C(C(=O)O)=C(S[C@@H]3CN[C@H](C(=O)Nc4cccc(C(=O)O)c4)C3)[C@H](C)[C@H]12 [ETP, ertapenem]
6 µg/mL: E. cloacae; E. cloacae (KPC-2)
2 µg/mL: E. cloacae; E. cloacae CFVL, KPC-2 + TEM-3 | C. koseri; C. koseri VER (OXA-48) | C. koseri; C. koseri VER, OXA-48 | C. koseri; Citrobacter koseri, C. koseri ROU, OXA-48, read-out: MIC | C. koseri; strain C. koseri VER, OXA-48
> 32 µg/mL: E. cloacae; E. cloacae 1008029, VIM-1+ CTX-M-3 | E. cloacae; E. cloacae 1008079, IMP-1 | E. cloacae; E. cloacae 1008187, IMP-1 + CTX-M-15 | E. cloacae; E. cloacae HMG, KPC-2 + TEM-1 | C. freundii; Citrobacter freundii, C. freundii STE (NDM-1 + OXA-1 + OXA-9 + OXA-10 + CTX-M-15 + TEM-1), read-out: MIC | C. freundii; Citrobacter freundii, C. freundii STE, NDM-1 + TEM-1 + CTX-M-15 + VIM-4 + OXA-1 + OXA-9 + OXA-10 + OXA-181, read-out: MIC
0.38 µg/mL: E. cloacae; E. cloacae KAR, VIM-1+ SHV-70
1 µg/mL: E. cloacae; E. cloacae TWA, IMP-8
0.12 µg/mL: E. cloacae; E. cloacae CLO (CTX-M-15) | E. cloacae; E. cloacae CLO, CTX-M-15, non-carbapenemase producer | E. cloacae; E. cloacae CVB (VEB-1) | E. cloacae; E. cloacae CVB, VEB-1, non-carbapenemase producer | E. cloacae; strain E. cloacae CLO, CTX-M-15, non-carbapenemase producer | E. cloacae; strain E. cloacae CVB, VEB-1, non-carbapenemase producer | P. mirabilis; Proteus mirabilis, P. mirabilis PMA (ACC-1), read-out: MIC
4 µg/mL: E. cloacae; E. cloacae HPTU (KPC-2 + TEM-1 + SHV-11) | E. cloacae; E. cloacae HPTU, KPC-2 + TEM-1 + SHV-11 | E. cloacae; strain E. cloacae HPTU, KPC-2 + TEM-1 + SHV-11
0.19 µg/mL: S. typhimurium; S. typhimurium 1081 (CTX-M-1) | S. typhimurium; Salmonella enterica, S. typhimurium 1081, CTX-M-1, non-carbapenemase producer, read-out: MIC | S. typhimurium; strain S. typhimurium 1081, CTX-M-1, non-carbapenemase producer
0.047 µg/mL: P. mirabilis; Proteus mirabilis, P. mirabilis 1031 (CTX-M-14 + TEM-1 + SHV-11), read-out: MIC | P. mirabilis; Proteus mirabilis, P. mirabilis 1031, CTX-M-14 + TEM-1 + SHV-11, non-carbapenemase producer, read-out: MIC
8 µg/mL: E. cloacae; E. cloacae BEU, OXA-48 + TEM-1 + CTX-M-15 + SHV-12 | C. freundii; C. freundii MAU, Overexpressed AmpC + TEM-3, non-carbapenemase producer | C. freundii; strain C. freundii MAU, Overexpressed AmpC + TEM-3, non-carbapenemase producer
0.094 µg/mL: P. mirabilis; P. mirabilis PMA (ACC-1) | P. mirabilis; Proteus mirabilis, P. mirabilis PMA, ACC-1, non-carbapenemase producer, read-out: MIC
0.064 µg/mL: E. cloacae; E. cloacae 7746, (wild type), non-carbapenemase producer
0.75 µg/mL: E. cloacae; E. cloacae 10111 (TEM-1 + CTX-M-15) | E. cloacae; strain E. cloacae 10111, TEM-1 + CTX-M-15, non-carbapenemase producer
16 µg/mL: E. cloacae; E. cloacae IR38 (NDM-1 + CTX-M-15) | E. cloacae; E. cloacae IR38, NDM-1 + CTX-M-15
0.008 µg/mL: E. cloacae; E. cloacae 7725, (wild type), non-carbapenemase producer | C. freundii; Citrobacter freundii, C. freundii 7767 (wild type), read-out: MIC | C. freundii; Citrobacter freundii, C. freundii 7767, (wild type), non-carbapenemase producer, read-out: MIC
0.5 µg/mL: E. cloacae; E. cloacae TAW (IMP-8 + SHV-12) | E. cloacae; E. cloacae TAW, IMP-8 + SHV-12 | E. cloacae; E. cloacae TUR (OXA-48 + SHV-5) | E. cloacae; E. cloacae TUR, OXA-48 + SHV-5 | E. cloacae; strain E. cloacae TAW, IMP-8 + SHV-12 | E. cloacae; strain E. cloacae TUR, OXA-48 + SHV-5
0.016 µg/mL: E. cloacae; E. cloacae 1012, TEM-1 + SHV-12, non-carbapenemase producer | E. cloacae; E. cloacae 1027, TEM-1 + CTX-M-15, non-carbapenemase producer | E. cloacae; E. cloacae 5434 (wild type) | E. cloacae; E. cloacae 5434, (wild type), non-carbapenemase producer | C. freundii; Citrobacter freundii, C. freundii 1003, CTX-M-15 + TEM-1, non-carbapenemase producer, read-out: MIC | C. freundii; Citrobacter freundii, C. freundii 10107 (TEM-1 + SHV-12), read-out: MIC | C. freundii; Citrobacter freundii, C. freundii 10107, TEM-1 + SHV-12, non-carbapenemase producer, read-out: MIC | C. freundii; Citrobacter freundii, C. freundii 10135 (CTX-M-15), read-out: MIC | C. freundii; Citrobacter freundii, C. freundii 10135, CTX-M-15, non-carbapenemase producer, read-out: MIC | C. freundii; Citrobacter freundii, strain C. freundii 10107, TEM-1 + SHV-12, non-carbapenemase producer, read-out: MIC | C. freundii; Citrobacter freundii, strain C. freundii 10135, CTX-M-15, non-carbapenemase producer, read-out: MIC
